Here are results for three compounds from paper PMC10385664, “Projection of Target Drug Particle Size in Oral Formulations Using the Refined Developability Classification System (rDCS)” (Pharmaceutics, 2023).

Data set [1] in a line: Caco-2 permeability assay (pH 6.5/7.4 gradient, ± elacridar). As to conditions: human; for recovery at 120 min, 10 µM: Caco-2. How it is done:
(§1) In vitro permeability studies were performed at Cyprotex Discovery Ltd. (Macclesfield, UK) using a high-throughput Caco-2 permeability assay. Permeability at 37 °C was assessed from the apical to basolateral side (A⟹B) and in opposite direction (B⟹A) applying a pH gradient with pH 6.5 in the apical and pH 7.4 in the basolateral compartment (Hanks Balanced Salt Solution, HBSS). After an incubation of 120 min, samples were diluted for analysis via liquid chromatography coupled with tandem mass spectrometry (LC-MS/MS). […] Experiments were performed in absence and presence of the P-glycoprotein (P-gp) inhibitor elacridar (10 µM) to study transporter-mediated efflux effects. The dosing solutions contained the API (10 µM) in HBSS, and DMSO in a concentration of ≤1% v/v. Lucifer yellow (100 µM) was included as fluorescent integrity marker. Further experimental details are provided in Supplementary Materials.
(§2) The apparent permeability coefficients (Papp) were calculated according to Equation (27):(27) Papp=dQ/dt/C0·A where dQ/dt is the permeation rate of the API across the cell monolayer, C0 is the starting concentration of the API in the dosing solution and A is the surface area of the cell monolayer. The efflux ratios (ERs) were calculated from the B⟹A and A⟹B Papp values to estimate whether P-gp mediated efflux was involved in the transport of the APIs. The mass balance (% recovery) was calculated from the sum of the API recovered from the acceptor and donor compartments at the end of the experiment, divided by the initial donor amount.
(§3) Table S6. Gradient of the UPLC method for analysis of lemborexant.
(§4) Table S7. Gradient of the UPLC method for analysis of istradefylline.
(§5) S.2.5. rDCS Standard Investigations: Caco‐2 permeability studies
(§6) Caco‐2 cells were obtained from the American Type Culture Collection (ATCC, Manassas, VA, USA) and used between passage numbers 40 to 60. The cells were seeded onto Millipore Multiscreen Transwell plates at a density of 1 x 10^5 cells/cm2 and cultured in Dulbeccoʹs Modified Eagleʹs Medium (DMEM). The medium was changed every two or three days. Ce l l culture was carried out at 37 °C in an atmosphere of 5 % CO2 with a relative humidity of 95 %. The permeability assay was performed on day 20.
(§7) In vitro permeability was assessed wit h a high‐throughput Caco‐2 permeability assay. The assay was prepared by rinsing apical and basolateral monolayer surfaces twice with Hanks Balanced Salt Solution (HBSS) at the desired pH and 37 °C. Subsequently, cells in the apical and basolateral compartments were incubated with HBSS at the desired pH for 40 min. A pH gradient with pH 6.5 in the apical compartment and pH 7.4 in the basolateral compartment was applied. Dosing solutions containing the API (10 μ M) were prepared by diluting a concentrated API solution in DMS O with HBSS. The final DMSO concentration was ≤ 1% v/v. Lucifer yellow (100 μM) was included in the dosing solution as fluorescent integrity marker. For the assessment of the permeability from the apical to basolateral side (A⟹B), HBSS in the apical compartment was replaced with the dosing solution. The apical inserts were placed into a companion plat e containing fresh buffer with 1% v/ v DMSO. For the assessment of the permeability from the basolateral to […]
(§8) apical side (B⟹A), HBSS was removed from the companion plate and replaced with the solution of drug in HBSS. Fresh HBSS was added to the apical insert, which was then placed into the companion plate.
(§9) Experiments were performed in absence and presence of the P‐glycoprotein (P‐gp) inhibitor elacridar (10 μM) to study transporter‐mediated efflux effects. In those experiments, elacridar was included in both compartments during the equilibration time and assay. The starting concentration (C0) was confirmed by sampling from the dosing solution immediately before dosing into the cell pl ates. After incubation of 120 minutes, the apical inserts and companion plates were separated for sampling from both compartments.
On the technique in general: Caco-2 monolayers are a common model of the intestinal barrier.

In another data set the test system is P-gp. The data set is described as above. Particulars: human, Caco-2, with P-gp inhibitor elacridar 10 µM. How it is done: as §1, §2, §3, §4, §5, §6, §7, §8, §9
The nature of data set [2]: rDCS dissolution rate analysis (kdiss vs kperm) by Rosenberger et al. Particulars: for kdiss: based on IDR, standard particle size 100 µm. An excerpt: Rosenberger et al. published an equation for kdiss based on the intrinsic dissolution rate (IDR) rather than CS (Equation (9)). Applying the hparticle assumption for larger particles with r0 ≥ 30 µm (hparticle = 30 µm) results in Equation (10). (9) kdiss=kIDR·IDR=3·hdisk/r0^2·ρ·IDR(r0<30 µm, hparticle=r0) (10) kdiss=kIDR·IDR=3·hdisk/r0·hparticle·ρ·IDR(r0≥30 µm, hparticle=30 µm)
In these equations kIDR is the IDR rate constant, which accounts for the solvent kinematic viscosity, rotational speed of the compressed disk, diffusion coefficient, particle size and API density. Therefore, kIDR corrects for differences in experimental conditions that influence the measured IDR value. The ABL thickness of the rotating disk (hdisk) can be estimated according to Equation (11):(11) hdisk=4.98·ν^1/6·D^1/3·RPM^−1/2 where ν is the solvent kinematic viscosity and the stirring rate is expressed as revolutions per minute (RPM). When kdiss is based on the IDR, two modified Dn equations result (Equations (12) and (13)):(12) Dn=3·hdisk/r0^2·ρ·IDR·Tsi(r0<30 µm, hparticle=r0) (13) Dn=3·hdisk/r0·hparticle·ρ·IDR·Tsi(r0≥30 µm, hparticle=30 µm)
The rDCS dissolution rate analysis was conducted according to Rosenberger et al.. For this, kdiss based on the IDR for a standard particle size of 100 µm was calculated (Equation (15)) and compared to kperm (Equation (10)). The kinematic viscosity of the medium (0.00696 cm^2/s), aqueous diffusion coefficient (predicted with ADMET Predictor version 9), stirring rate (100 rpm), initial particle size (100 µm), API density (predicted with ACD/Labs Release 2021.1.2), and measured IDR were used to calculate kdiss. Predicted diffusion coefficients and API densities can be found in Supplementary Materials. The estimated Peff, degree of flatness (1.7) and small intestinal radius (2 cm) were used for the calculation of kperm.

For data set [3] the following is noted: cited from earlier work.
Where [4] appears, read: Caco-2, Papp(A⟹B), Caco-2, 10 µM, apical pH 6.5 / basolateral pH 7.4, 120 min, without inhibitor.
[5] abbreviates: Caco-2, Papp(B⟹A), Caco-2, without inhibitor.
Where [6] appears, read: Caco-2, with elacridar 10 µM, Papp(A⟹B) + inhibitor.
The mark [7] stands for this setting: Caco-2, with elacridar 10 µM, Papp(B⟹A) + inhibitor.
[8] abbreviates: from estimated Peff, DF 1.7, Rsi 2 cm.
Setting [9] is: healthy male subjects, oral suspension 40 mg [14C]istradefylline.
The mark [10] stands for this setting: human mass-balance study, 10 mg [14C]lemborexant.

On to `CCn1c(=O)c2c(nc(/C=C/c3ccc(OC)c(OC)c3)n2C)n(CC)c1=O` [Istradefylline, istradefylline], for which, in data set [1], the recovery at 120 min, 10 µM was over 85%. In addition, the Papp (in general, the rate of passage across a membrane or cell layer, normalised by area and donor concentration) at 120 min, 10 µM in data set [1] (setting [4]) amounted to 30.2 ± 1.2 ×10⁻⁶ cm/s; in data set [1] (setting [5]), 28.3 ± 16 ×10⁻⁶ cm/s; in the data set with P-gp (setting [6]), 31.2 ± 1.1 ×10⁻⁶ cm/s; in the data set with P-gp (setting [7]), 43.7 ± 18.5 ×10⁻⁶ cm/s. The compound also had a kdiss in data set [2] of 4.55e-07 s⁻¹. Also, in data set [2] (setting [8]), the kperm is 0.0238 min⁻¹. In data set [3] (setting [9]), the “administered radioactivity recovered in feces” value is listed as 48.0 ± 13.4%. The “administered radioactivity recovered in urine” value in data set [3] (setting [9]) is given as 38.9 ± 10.7%.

Turning to `Cc1ncc(OC[C@@]2(c3cccc(F)c3)C[C@H]2C(=O)Nc2ccc(F)cn2)c(C)n1` [Lemborexant, lemborexant], the recovery at 120 min, 10 µM in data set [1] is over 74%. In addition, the Papp at 120 min, 10 µM in data set [1] (setting [4]) came to 26.7 ± 1.2 ×10⁻⁶ cm/s; in data set [1] (setting [5]) it was 41.8 ± 1.2 ×10⁻⁶ cm/s; in the data set with P-gp (Caco-2, Papp(A⟹B) + inhibitor), 24.2 ± 0.7 ×10⁻⁶ cm/s; in the data set on P-gp (Caco-2, Papp(B⟹A) + inhibitor), 39 ± 0.4 ×10⁻⁶ cm/s. For the same compound, the kdiss in data set [2] is 3e-06 s⁻¹. Besides, the kperm in data set [2] (setting [8]) was 0.0214 min⁻¹. Besides, the median tmax entry in data set [3] (healthy adults, single oral doses 1 to 10 mg) is listed as “approximately 1 h”. The “dose recovered unchanged in feces” value in data set [3] (setting [10]) is listed as “about 13%”. Besides, the “fraction of oral dose absorbed (Fa)” value in data set [3] (setting [10]) was 87%. In addition, the exposure versus dose result in data set [3] (range 1 to 10 mg) was “increase in a dose-proportional manner”.

With `C[C@@H](c1ncncc1F)[C@](O)(Cn1cncn1)c1ccc(F)cc1F` [Voriconazole, voriconazole], the recovery at 120 min, 10 µM in data set [1] is over 87%. For the same compound, the Papp at 120 min, 10 µM in data set [1] (setting [4]) was 27.3 ± 1.7 ×10⁻⁶ cm/s; in data set [1] (setting [5]) it was 43.5 ± 0.9 ×10⁻⁶ cm/s; in the data set on P-gp (setting [6]) it was 24 ± 1 ×10⁻⁶ cm/s; in the data set on P-gp (setting [7]), 40.4 ± 1.1 ×10⁻⁶ cm/s. In data set [2] (Excel template), the “kdiss for r = 100 µm” value was 0.000126 s⁻¹. The values for the kperm in data set [2] (Excel template) and in data set [2] (setting [8]) were 0.02193 min⁻¹ and 0.0219 min⁻¹, respectively. In data set [2], this compound registered a kdiss of 0.000126 s⁻¹. For the same compound, the oral bioavailability in data set [3] (healthy volunteers, 200 mg or 400 mg oral) is at least 85%. For the same compound, the “exposure (AUC and Cmax) versus dose” value in data set [3] (high single oral doses of 800, 1200 and 1600 mg) is reported as “increased proportionally with dose”.
